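Where inhibition never reached the appropriate level, the endpoint shown equals the highest concentration tested. Otherwise, values were interpolated linearly from a five-concentration, 48-hour dose response in 96-well plates. Abbreviation: GI50, concentration required for 50% inhibition of growth.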 Active and inactive are the calls of the source. Rule as the data show it: active = GI50 up to about 1.1 µM and inactive = higher.
Columns and labels:
Test in all cases: NCI tumour cell line growth inhibition, 48 h
786-0 = tested on: 786-0
A498 = tested on: A498
A549 = tested on: A549
DU-145 = tested on: DU-145
HCT-15 = tested on: HCT-15
IGROV-1 = tested on: IGROV-1
LOX IMVI = tested on: LOX IMVI
MDA-MB-435 = tested on: MDA-MB-435
NCI-H23 = tested on: NCI-H23
NCI-H460 = tested on: NCI-H460
NCI-H522 = tested on: NCI-H522
OVCAR-4 = tested on: OVCAR-4
RPMI-8226 = tested on: RPMI-8226
SF-268 = tested on: SF-268
SK-MEL-28 = tested on: SK-MEL-28
SK-OV-3 = tested on: SK-OV-3
SN12C = tested on: SN12C
SW-620 = tested on: SW-620
UACC-62 = tested on: UACC-62

In the case of `CC(=O)c1c2c(cc3c1CC1(Cc4cc5c(cc4C1)C(=O)CCC5)C3)CCCC2` (stereo not drawn), the GI50 (786-0) is reported as 5.66 µM (inactive), the GI50 (A498) is reported as 0.822 µM (active) and the GI50 (A549) is reported as > 21.5 µM (inactive). The GI50 (DU-145) was 20.9 µM (inactive), the GI50 (HCT-15) was 3.94 µM and the GI50 (IGROV-1) was 3.45 µM (inactive). For the same compound, the GI50 (LOX IMVI) was 7.18 µM (inactive), the GI50 (MDA-MB-435) was 2.94 µM (inactive) and the GI50 (NCI-H23) was 6.12 µM (inactive). For the same compound, the GI50 (NCI-H460) was 4.69 µM (inactive), the GI50 (NCI-H522) was 4.31 µM (inactive) and the GI50 (OVCAR-4) was 5.83 µM (inactive). The GI50 (RPMI-8226) was 3.48 µM (inactive), the GI50 (SF-268) was 8.07 µM (inactive) and the GI50 (SK-MEL-28) was 7.38 µM (inactive). For the same compound, the GI50 (SK-OV-3) was > 54.8 µM (inactive), the GI50 (SN12C) was 13.4 µM (inactive) and the GI50 (SW-620) was 5.25 µM (inactive).
In the case of `CCCCN(CCCC)C(=O)C(=O)CC(=O)c1ccc(Br)cc1`, the GI50 (786-0) is reported as > 100 µM (inactive), the GI50 (A498) is reported as > 100 µM (inactive) and the GI50 (A549) is reported as > 100 µM (inactive). The GI50 (HCT-15) was > 100 µM, the GI50 (IGROV-1) was > 100 µM (inactive) and the GI50 (LOX IMVI) was > 100 µM (inactive). The GI50 (NCI-H23) was > 100 µM (inactive), the GI50 (NCI-H460) was > 100 µM (inactive) and the GI50 (NCI-H522) was > 100 µM (inactive). For the same compound, the GI50 (OVCAR-4) was > 100 µM (inactive), the GI50 (RPMI-8226) was > 100 µM (inactive) and the GI50 (SF-268) was > 100 µM (inactive). The GI50 (SK-OV-3) was > 100 µM (inactive), the GI50 (SN12C) was > 100 µM (inactive) and the GI50 (SW-620) was > 100 µM (inactive). For the same compound, the GI50 (UACC-62) was > 100 µM (inactive).
For `c1ccc2c(C3NCCc4nc[nH]c43)cccc2c1` (stereo not drawn), the GI50 (786-0) was > 100 µM (inactive), the GI50 (A498) was > 100 µM (inactive) and the GI50 (A549) was > 100 µM (inactive). For the same compound, the GI50 (HCT-15) was > 100 µM, the GI50 (IGROV-1) was > 100 µM (inactive) and the GI50 (LOX IMVI) was > 100 µM (inactive). The GI50 (NCI-H23) was > 100 µM (inactive), the GI50 (NCI-H460) was > 100 µM (inactive) and the GI50 (NCI-H522) was 98.4 µM (inactive). The GI50 (OVCAR-4) was > 100 µM (inactive), the GI50 (RPMI-8226) was > 100 µM (inactive) and the GI50 (SF-268) was > 100 µM (inactive). For the same compound, the GI50 (SK-MEL-28) was > 100 µM (inactive), the GI50 (SK-OV-3) was > 100 µM (inactive) and the GI50 (SN12C) was > 100 µM (inactive). The GI50 (SW-620) was > 100 µM (inactive) and the GI50 (UACC-62) was > 100 µM (inactive).
`COc1cc2cc(C(=O)N3CC(CCl)c4ccc(O)cc43)[nH]c2c(OC)c1OC` (stereo not drawn) was tested, and the GI50 (786-0) was 0.00012 µM (active), the GI50 (A498) was < 0.01 µM (active) and the GI50 (A549) was 0.000501 µM (active). For the same compound, the GI50 (DU-145) was 0.00466 µM (active), the GI50 (HCT-15) was 0.00562 µM and the GI50 (IGROV-1) was 0.0198 µM (active). The GI50 (LOX IMVI) was 0.00184 µM (active), the GI50 (MDA-MB-435) was 0.00263 µM (active) and the GI50 (NCI-H23) was 0.00199 µM (active). The GI50 (NCI-H522) was < 0.0001 µM (active), the GI50 (OVCAR-4) was 0.00491 µM (active) and the GI50 (RPMI-8226) was 0.000556 µM (active). For the same compound, the GI50 (SF-268) was 0.00596 µM (active), the GI50 (SK-MEL-28) was 0.00196 µM (active) and the GI50 (SN12C) was 0.00441 µM (active). The GI50 (SW-620) was 0.00233 µM (active) and the GI50 (UACC-62) was 0.00136 µM (active).
